Experiment: xn = mol fraction of the nth substance listed
Settings: 101 kPa, Liquid; for viscosity: Capillary tube (Ostwald / Ubbelohde) method

CN1CCOCC1 [N-methylmorpholine] + C1CCCCC1
Settings	mass density, 298.15 K [kg/m3]	mass density, 303.15 K [kg/m3]	mass density, 313.15 K [kg/m3]	mass density, 323.15 K [kg/m3]	viscosity, 298.15 K [mPa·s]	viscosity, 303.15 K [mPa·s]	viscosity, 313.15 K [mPa·s]	viscosity, 323.15 K [mPa·s]
x2 = 0.0453	907.59	902.83	893.49	874.42	0.868	0.854	0.824	0.802
x2 = 0.1276	895.48	890.66	882.09	863.12	0.85	0.838	0.803	0.778
x2 = 0.1689	889.43	884.59	876.36	857.48	0.84	0.828	0.792	0.764
x2 = 0.2217	881.74	876.96	869.02	850.4	0.83	0.814	0.779	0.75
x2 = 0.2763	873.94	869.13	861.42	843.13	0.824	0.804	0.765	0.732
x2 = 0.3217	867.42	862.66	855.1	837.1	0.821	0.797	0.755	0.718
x2 = 0.3873	857.99	853.23	845.94	828.33	0.819	0.791	0.742	0.701
x2 = 0.4326	851.46	846.82	839.61	822.36	0.819	0.786	0.736	0.691
x2 = 0.4833	844.29	839.67	832.51	815.69	0.821	0.784	0.729	0.681
x2 = 0.5218	838.78	834.2	827.11	810.59	0.824	0.784	0.726	0.673
x2 = 0.5844	829.95	825.42	818.32	802.4	–	0.785	0.721	0.665
x2 = 0.5943	–	–	–	–	0.829	–	–	–
x2 = 0.6328	823.16	818.66	811.52	796.08	–	0.786	0.719	0.659
x2 = 0.6341	–	–	–	–	0.835	–	–	–
x2 = 0.6877	–	–	–	–	0.842	–	–	–
x2 = 0.6911	815.03	810.51	803.31	788.47	–	0.789	0.717	0.653
x2 = 0.7129	–	–	–	–	0.847	–	–	–
x2 = 0.7428	807.87	803.38	796.01	781.8	–	0.79	0.714	0.646
x2 = 0.7648	–	–	–	–	0.855	–	–	–
x2 = 0.7895	–	–	–	–	0.861	–	–	–
x2 = 0.7944	800.77	796.31	788.72	775.2	–	0.794	0.71	0.638
x2 = 0.8392	794.64	790.27	782.38	769.54	–	0.797	0.708	0.631
x2 = 0.8444	–	–	–	–	0.868	–	–	–
x2 = 0.8643	791.35	786.94	778.83	766.42	–	0.797	0.706	0.626
x2 = 0.8873	–	–	–	–	0.875	–	–	–
x2 = 0.9033	786.15	781.75	773.3	761.57	–	0.801	0.704	0.619
x2 = 0.9348	–	–	–	–	0.889	–	–	–
x2 = 0.9532	779.63	775.19	766.22	755.42	–	0.805	0.7	0.611
x2 = 0.9741	–	–	–	–	0.898	–	–	–
x2 = 0.9823	775.75	771.51	762.08	751.98	–	0.805	0.698	0.607

CN1CCOCC1 [N-methylmorpholine] + Cc1ccccc1
Settings	mass density, 298.15 K [kg/m3]	mass density, 303.15 K [kg/m3]	mass density, 313.15 K [kg/m3]	mass density, 323.15 K [kg/m3]	viscosity, 298.15 K [mPa·s]	viscosity, 303.15 K [mPa·s]	viscosity, 313.15 K [mPa·s]	viscosity, 323.15 K [mPa·s]
x2 = 0.0457	912.04	907.63	898.17	879.98	0.847	0.839	0.807	0.795
x2 = 0.1167	908.88	904.69	895.22	877.67	0.806	0.798	0.774	0.759
x2 = 0.1822	905.97	901.78	892.37	875.42	0.772	0.765	0.739	0.723
x2 = 0.2455	903.08	898.89	889.47	873.11	0.739	0.732	0.705	0.687
x2 = 0.2843	901.28	897.11	887.68	871.67	0.721	0.712	0.684	0.665
x2 = 0.3211	899.58	895.42	885.99	870.33	0.704	0.692	0.664	0.643
x2 = 0.3862	896.61	892.43	882.99	867.93	0.678	0.664	0.634	0.612
x2 = 0.4327	894.39	890.21	880.77	866.14	0.659	0.645	0.614	0.59
x2 = 0.4841	891.92	887.74	878.29	864.14	0.643	0.627	0.596	0.57
x2 = 0.5512	888.55	884.36	874.87	861.34	0.622	0.606	0.573	0.546
x2 = 0.5943	886.32	882.15	872.61	859.47	0.612	0.594	0.56	0.531
x2 = 0.6341	884.21	880.05	870.53	857.79	0.602	0.586	0.551	0.521
x2 = 0.6877	881.26	877.11	867.65	855.41	0.594	0.575	0.539	0.507
x2 = 0.7129	879.83	875.68	866.2	854.17	0.588	0.571	0.535	0.503
x2 = 0.7648	876.73	872.59	863.14	851.63	0.583	0.561	0.524	0.488
x2 = 0.7895	875.15	871.01	861.57	850.28	0.581	0.559	0.521	0.487
x2 = 0.8444	871.87	867.75	858.32	847.56	0.571	0.549	0.51	0.474
x2 = 0.8873	869.14	865.03	855.6	845.26	0.569	0.543	0.503	0.458
x2 = 0.9348	866.19	862.08	852.67	842.77	0.558	0.536	0.49	0.444
x2 = 0.9741	863.67	859.57	850.02	840.51	0.554	0.527	0.477	0.429

Source: the NIST ThermoML archive (doi:10.1016/j.jct.2007.11.002)
